According to patent US6534480B2, “Compositions for increasing energy in vivo” (Bioenergy Inc., priority 1999, dated 2003):

Key:
[1] = Cycle sprint power output in healthy fit subjects (Ribose Athlete Study); type: in vivo, human; conditions: for Mean Power Per Kilogram, Average / Peak Power Per Kilogram, Average / Total Power Per Kilogram, Average: average of sessions 1-6
Experimental: Four healthy, fit subjects in the age range 24 to 26 years of age were tested. The group was selected to be homogeneous regarding fitness level, gender and mean age with no known metabolic, neuronal, endocrine or cardiopulmonary disorders. All were capable of or had experience with cycling. The study protocol included four phases: (1) an initial baseline phase consisting of no exercise session; (2) a loading phase including three days of administration of either D-ribose or placebo (glucose) three times per day; (3) a training phase of three days employing exercise sessions characterized by serial (N=6) bouts of short (10 second) high-intensity cycle sprints at 7% body mass resistance with 50 second rest periods between sprints twice per day (morning and afternoon), and (4) a recovery phase for a period of 48 hours after the final training session. FIG. 1 is a diagram of a single cycle sprint bout. Two subjects were randomly selected for inclusion into the placebo or ribose group. Ribose or glucose was administered orally in a 250 ml iso-osmotic solution containing 10.0 grams of either ribose or placebo three times per day for three days preceding training (loading phase) and for three days during training (training phase). One-half liter isotonic electrolyte solution was given immediately post exercise and again 30 minutes later to avoid dehydration.

[2] = Sprint power output and well-being in normal untrained subjects (planned); type: in vivo, human; conditions: 5 grams of D-ribose in 200 ml. of water after each sprint bout
Text: D-ribose, given immediately before and during exercise, can provide a benefit to those subjects who have not been previously trained. Four healthy, normal male volunteers will be tested for sprint power output on an exercycle, as for Example 2 above. Each subject will serve as their own control. Between the sprint bouts, the subjects will cycle slowly and continuously. Total test time will be one hour, with four sprint bouts during the test. Following the initial baseline test and following each sprint bout, the subjects will be given 5 grams of D-ribose in 200 ml. of water or a similar tasting placebo (glucose). Sprint power output will be tested 15 minutes after each ingesting of the test solutions. Each subject will undergo two sessions, one week apart, one with ribose and one with placebo, in randomized order. The placebo will be sweetened with glucose in order to be indistinguishable from the ribose solution.

[3] = Exercise induced angina, single patient with coronary artery disease; type: in vivo, human
Text: A patient with a history of coronary artery disease, status post triple coronary artery bypass, experienced exercise induced angina. Their present medications are: enalapril (an angiotensin converting enzyme inhibitor), carvedilol (a β blocking agent), nitroglycerine patch and nitroglycerine tablets sublingual as needed. […] The patient performed poorly on two stress tests. Their exercise regimen consisted of a daily walk. Due to the development of angina, the patient was able to walk less than one mile per day, at which point they took sublingual nitroglycerine. The patient was given oral D-ribose dissolved in about 250 cc. of water. Over a six-month period, the patient received intermittent doses of 5-10 grams per day of D-ribose. […] When the ribose was discontinued, their pre-ribose, anginal-inducing exercise state recurred, which necessitated the use of supplemental oral nitroglycerine.

[4] = Treadmill test (Bruce protocol), single patient with stable coronary artery disease; type: in vivo, human
Experimental: The patient was tested for treadmill performance. After two baseline treadmill tests, following the Bruce protocol, they received orally administered D-ribose (40 gm in three divided doses daily) for three days and completed a third treadmill test. […] In each test, this patient concluded the test due to shortness of breath, but experienced no angina.
It is generally accepted that the product of heart rate and systemic pressure is a measure of myocardial function and energy level, with lower numbers indicating better myocardial function. As a result of the administration of ribose, average tolerated time on the treadmill increased.

[5] = oral, humans; cited from earlier work
[6] = cited from earlier work
de novo synthesis of AMP = conditions: ribose added to the perfusate; cited from earlier work
[7] = ribose group mean, sprint session 1
[8] = ribose group mean, sprint session 2
[9] = ribose group mean, sprint session 3
[10] = ribose group mean, sprint session 4
[11] = ribose group mean, sprint session 5
[12] = ribose group mean, sprint session 6

O=C[C@H](O)[C@H](O)[C@H](O)CO [Ribose, D-ribose]
Mean Power Per Kilogram, Average ([1]; ribose group mean): 8.2 Watts
Peak Power Per Kilogram, Average ([1]; ribose group mean): 9.6 Watts
Total Power Per Kilogram, Average ([1]; ribose group mean): 81.6
Peak Power Per Kilogram [1, 7]: 8.9 Watts
Total Power Per Kilogram [1, 7]: 79.3
Mean Power Per Kilogram ([1]; ribose group mean, sprint session 1, 10.0 grams oral three times per day): 7.8 Watts
Mean Power Per Kilogram [1, 8]: 8.4 Watts
Peak Power Per Kilogram [1, 8]: 9.7 Watts
Total Power Per Kilogram [1, 8]: 83.3
Mean Power Per Kilogram [1, 9]: 8.5 Watts
Peak Power Per Kilogram [1, 9]: 10.0 Watts
Total Power Per Kilogram [1, 9]: 84.2
Mean Power Per Kilogram [1, 10]: 8.3 Watts
Peak Power Per Kilogram [1, 10]: 9.9 Watts
Total Power Per Kilogram [1, 10]: 82.8
Mean Power Per Kilogram [1, 11]: 8.2 Watts
Peak Power Per Kilogram [1, 11]: 9.8 Watts
Total Power Per Kilogram [1, 11]: 81.8
Mean Power Per Kilogram [1, 12]: 7.8 Watts
Peak Power Per Kilogram [1, 12]: 9.3 Watts
Total Power Per Kilogram [1, 12]: 77.9
Mean Power Per Kilogram, average relative to placebo (100.0%) ([1]; ribose group vs placebo group): 109.0%
Peak Power Per Kilogram, average relative to placebo (100.0%) ([1]; ribose group vs placebo group): 109.9%
Total Power Per Kilogram, average relative to placebo (100.0%) ([1]; ribose group vs placebo group): 109.5%
increase in performance ([1]; ribose vs placebo, Tables II to IV): 9%
Mean Power Per Kilogram, Average ([1]; subject 2R): 7.5 Watts
Peak Power Per Kilogram, Average ([1]; subject 2R): 8.8 Watts
Total Power Per Kilogram, Average ([1]; subject 2R): 75.1
Mean Power Per Kilogram ([1]; subject 2R, sprint session 1): 6.9 Watts
Peak Power Per Kilogram ([1]; subject 2R, sprint session 1): 7.9 Watts
Total Power Per Kilogram ([1]; subject 2R, sprint session 1): 71.9
Mean Power Per Kilogram ([1]; subject 2R, sprint session 2): 7.5 Watts
Peak Power Per Kilogram ([1]; subject 2R, sprint session 2): 8.8 Watts
Total Power Per Kilogram ([1]; subject 2R, sprint session 2): 74.7
Mean Power Per Kilogram ([1]; subject 2R, sprint session 3): 7.8 Watts
Peak Power Per Kilogram ([1]; subject 2R, sprint session 3): 9.2 Watts
Total Power Per Kilogram ([1]; subject 2R, sprint session 3): 77.1
Mean Power Per Kilogram ([1]; subject 2R, sprint session 4): 7.6 Watts
Peak Power Per Kilogram ([1]; subject 2R, sprint session 4): 9.0 Watts
Total Power Per Kilogram ([1]; subject 2R, sprint session 4): 75.6
Mean Power Per Kilogram ([1]; subject 2R, sprint session 5): 7.9 Watts
Peak Power Per Kilogram ([1]; subject 2R, sprint session 5): 9.4 Watts
Total Power Per Kilogram ([1]; subject 2R, sprint session 5): 78.1
Mean Power Per Kilogram ([1]; subject 2R, sprint session 6): 7.4 Watts
Peak Power Per Kilogram ([1]; subject 2R, sprint session 6): 8.7 Watts
Total Power Per Kilogram ([1]; subject 2R, sprint session 6): 73.4
Mean Power Per Kilogram, Average ([1]; subject 3R): 8.8 Watts
Peak Power Per Kilogram, Average ([1]; subject 3R): 10.3 Watts
Total Power Per Kilogram, Average ([1]; subject 3R): 88.0
Mean Power Per Kilogram ([1]; subject 3R, sprint session 1): 8.7 Watts
Peak Power Per Kilogram ([1]; subject 3R, sprint session 1): 9.8 Watts
Total Power Per Kilogram ([1]; subject 3R, sprint session 1): 86.8
Mean Power Per Kilogram ([1]; subject 3R, sprint session 2): 9.2 Watts
Peak Power Per Kilogram ([1]; subject 3R, sprint session 2): 10.6 Watts
Total Power Per Kilogram ([1]; subject 3R, sprint session 2): 91.9
Mean Power Per Kilogram ([1]; subject 3R, sprint session 3): 9.1 Watts
Peak Power Per Kilogram ([1]; subject 3R, sprint session 3): 10.7 Watts
Total Power Per Kilogram ([1]; subject 3R, sprint session 3): 91.3
Mean Power Per Kilogram ([1]; subject 3R, sprint session 4): 9.0 Watts
Peak Power Per Kilogram ([1]; subject 3R, sprint session 4): 10.7 Watts
Total Power Per Kilogram ([1]; subject 3R, sprint session 4): 90.0
Mean Power Per Kilogram ([1]; subject 3R, sprint session 5): 8.5 Watts
Peak Power Per Kilogram ([1]; subject 3R, sprint session 5): 10.1 Watts
Total Power Per Kilogram ([1]; subject 3R, sprint session 5): 85.4
Mean Power Per Kilogram ([1]; subject 3R, sprint session 6): 8.2 Watts
Peak Power Per Kilogram ([1]; subject 3R, sprint session 6): 9.9 Watts
Total Power Per Kilogram ([1]; subject 3R, sprint session 6): 82.5
subjective feeling of well being [2]: subjectively higher feeling of well being
sprint power output after ribose vs placebo ([2]; sustained mild exercise): higher power output
patient's subjective evaluation of the ribose treatment ([3]; oral D-ribose 5-10 grams per day): much less angina pain
exercise tolerance (daily walk) without nitroglycerine ([3]; oral D-ribose 5-10 grams per day intermittent over six months, before: less than one mile per day): two miles per day
Rate-pressure product, % change ([4]; 0 (rest), Test vs average of two baselines): −9.55%
Rate-pressure product (beats per minute times systolic blood pressure mm Hg), Test ([4]; 0 (rest), oral D-ribose 40 gm in three divided doses daily for three days): 9,177
Rate-pressure product (beats per minute times systolic blood pressure mm Hg), Test ([4]; 3 minutes on treadmill, after D-ribose): 15,272
Rate-pressure product, % change ([4]; 3 minutes, Test vs average of two baselines): −1.60%
Rate-pressure product (beats per minute times systolic blood pressure mm Hg), Test ([4]; 6 minutes on treadmill, after D-ribose): 20,592
Rate-pressure product, % change ([4]; 6 minutes, Test vs average of two baselines): −15.68%
Rate-pressure product (beats per minute times systolic blood pressure mm Hg), Test ([4]; 9 minutes on treadmill, after D-ribose): 25,356
Rate-pressure product, % change ([4]; 9 minutes, Test vs average of two baselines): −9.87%
Tolerated time, % change ([4]; Test vs average of two baselines): 5.06%
patient's subjective report ([4]; during ribose administration): feeling more energetic
Tolerated time, Test ([4]; treadmill, Bruce protocol, after D-ribose): 540.00 s
treatment of cardiac insufficiency and hypovolemic shock [5]: effective
symptoms of MAD-deficient patients ([6]; MAD-deficient patients): relieved
effect in normal volunteers ([6]; normal volunteers): no beneficial effect
de novo synthesis of AMP in sedentary muscle (de novo synthesis of AMP): increases the de novo synthesis of AMP
decline in de novo synthesis in contracting muscle (de novo synthesis of AMP): does not eliminate the decline
